# Where two headings read alike, the source gives them in different places.
# What was measured:
# [1] = In vitro application of DUAC gel/TAZORAC cream mixture to split-thickness human skin; tazarotene and degradants quantified by LC/MS/MS; assay type: in vitro ADME; conditions: for detected in the receiving medium (passing through the skin): DUAC/TAZORAC mixture applied to split-thickness human skin
# Protocol: An in vitro study was conducted to assess the formation of tazarotene degradants following the application of a mixture of DUAC gel and TAZORAC cream to human skin.
# Equal portions of DUAC gel and TAZORAC cream were dispensed into a glass vial and mixed for approximately three minutes with a metal spatula to ensure a homogenous mixture. Samples of European DUAC gel and US DUAC gel were used in separate experiments. […] The test mixtures were then applied to the surface of split-thickness skin (˜0.25 mm) at a dose of 15.6 mg/cm^2 and spread evenly using a positive displacement pipette.
# After 2 and 6 hours, the skin samples were washed, tape stripped twice, and then the epidermis was peeled from the dermis using a heat block. The skin samples were then extracted with acetonitrile overnight at 4° C. The distribution of tazarotene and its degradants within the epidermis, dermis and surface wash were quantified by LC/MS/MS with a 50 pg/mL LOQ. The experiments were performed under yellow light conditions. For the purposes of comparison, mixtures of DUAC gel and TAZORAC cream were also prepared and retained for stability testing at 0, 2 and 6 hour time points.
# [2] = in vitro; conditions: human, liver microsomes, pH 7.4, Half-life, HLM
# Protocol: Hepatic microsomal reactions were carried out in microcentrifuge tubes in the following manner. Human liver microsomes (0.5 or 1.0 mg/ml protein), Test Article (1 or 10 μM), paraoxon (0, 10 or 100 μM), NADPH regenerating system (10 mM glucose-6-phosphate, 1 unit/ml glucose-6-phosphate dehydrogenase, 1 mM NADP^+), magnesium chloride (5 mM) in 0.1 M potassium phosphate buffer, pH 7.4 were incubated at 37° C. in a shaking water bath. Reactions were initiated with the addition of substrate with the exception of the zero-time incubations. The total reaction volume was 0.2 ml. The reactions were incubated for 15, 30, 45 or 60 minutes, terminated with 0.2 ml ice-cold acetonitrile and then placed on ice. For zero-time incubations, ice cold acetonitrile was added to the mixture containing microsomes, along with NADPH regenerating system, magnesium chloride in phosphate buffer and the Test Article. Each time point was carried out in triplicate.
# Disappearance of Test Article and formation of metabolites following in vitro metabolism were determined by LC-MS/MS using multiple reaction monitoring. LightSight® software (Applied Biosystems, Foster City, Calif.) was used to generate the mass spectrometry methods and carry out the data mining.
# Control incubations were carried out with the identical incubation procedures as described above with the following exceptions. In negative control reactions, microsomes were not included. […] Duplicate reactions with an initial concentration of 10 μM were incubated for 0 or 30 minutes. Microsomal metabolic stability of 7-ethoxycoumarin was determined by LC-MS/MS.
# [3] = HPLC analysis of mixtures of DUAC gel and TAZORAC cream (degradation of tazarotene in the presence of benzoyl peroxide); assay type: physicochemical; conditions: fresh samples
# Protocol: DUAC® gel (1% clindamycin and 5% benzoyl peroxide marketed by Stiefel Laboratories, Inc.) and TAZORAC® cream (0.1% tazarotene marketed by Allergan, Inc.) have been successfully used to treat facial acne. However, these topical treatments are not approved for concomitant use. To study whether tazarotene is susceptible to oxidative decomposition by benzoyl peroxide, an in vitro laboratory study was conducted wherein a mixture of DUAC gel and TAZORAC cream was prepared.
# Samples were prepared by taking equal portions of DUAC gel and TAZORAC cream and mixing them thoroughly at room temperature with a spatula in a suitable container to form a uniform mixture. The initial samples were analyzed immediately by HPLC. The other samples were placed into an oven at 35° C. and removed for analysis after one, two, four, six and eight hours. An allowance was made for product evaporation over the course of the study.
# [4] = tested on: SkinEthic RHE cultures; assay: IL-1α and IL-8 activity assay in SkinEthic RHE cultures; assay type: cell-based, human; conditions: 6 μl test article, 72 hours
# Protocol: SkinEthic RHE cultures were transferred into 6-well plates containing 1.0 mL/well growth media. The cultures were equilibrated at 37° C. and the media was changed daily. The cultures were subsequently placed in 60 mm petri dishes containing 3.5 mL growth media. 6 μl aliquots of the Test Articles shown in Table 3 were applied to duplicate cultures. The cultures were incubated at 37° C. for 72 hours. At the end of the incubation period, the growth media was collected and stored at −20° C. The tissues were cut in half and one half was placed in 10% NBF for histology, while the other half was placed in RNAlater™ solution (Ambion). The following analyses were performed: a) IL-1α and IL-8 activity assay; b) Hand E staining; c) Immunohistochemistry for K10, K19 and filaggrin; and d) qRT-PCR to quantitate K10, K19 and filaggrin expression.
# [5] = tested on: Reconstructed human epidermis (RHE) tissues; assay: RT-qPCR gene expression of K10, K19, filaggrin, K4 and K13 in reconstructed human epidermis (RHE) cultures; assay type: cell-based; conditions: 72 h, 2.83 mM in OD/10% DMSO, 6 μl
# Protocol: Reconstructed human epidermis (RHE) tissues were cultured in-house as previously described by Poumay et al. Briefly, polycarbonate culture inserts (12 mm diameter and 0.4 μm pore size, Millipore) were filled with 150 μL of a suspension containing approximately 5×10^5 primary adult human keratinocytes. The inserts received another 500 μL of keratinocyte culture media and were placed in a 6-well plate (1 insert/well) containing 2.5 mL of RHE Growth Media (Epilife media +1.5 mM CaCl2). RHE cultures were incubated at 37° C. in a humidified atmosphere containing 5% CO2, for 24 hours. Subsequently (on Day 0), RHE cultures were exposed to the air-liquid interface by removing the RHE Growth Media from the top of the cultures, and replacing with 1.5 mL/well of RHE Growth Media containing 50 μg/mL vitamin C. Media was changed every other day until the cultures were dosed with Test Articles. A stock solution of 0.1% tazarotene (2.83 mM at 99.5% purity) in OD/10% DMSO was prepared. For tazarotene benzoate, hydroxytazarotenic acid, keto tazarotenic acid, keto tazarotene, and tazarotene nicotinate, a 10 mg/mL stock solution (in DMSO) was already prepared. From this stock solution, a 2.83 mM working solution (in octyldodecanol) was prepared. All other tested compounds were resuspended in DMSO and OD to obtain a final concentration of 2.83 mM in OD/10% DMSO. On Day 12, the cultures were placed in 60 mm petri dishes containing 3 mL of RHE Growth Media (+VitC). Test articles (6 μl) were applied to triplicate cultures and cultures were incubated at 37° C. for 72 hours. Untreated and OD alone served as negative controls. At the end of the incubation period, the growth media was collected and stored at −20° C. The tissues were cut in half: one half was placed in 10% NBF for histology, and the other half was placed in RNAlater™ solution for RT-qPCR. RNA was isolated and concentrations were determined using a NanoDrop spectrophotometer. In addition to using the same amount of RNA for each sample, data was normalized to internal GAPDH mRNA levels and is expressed as relative quantification (RQ) to untreated controls. RNA extracts from each replicate were amplified using RT-qPCR. The relative gene expression of five biomarkers was determined: Keratin 10, Keratin 19, Filaggrin, Keratin 4, and Keratin 13.
# [6] = Stability in human plasma at room temperature; assay type: in vitro ADME
# Protocol: (§1) Tazarotene, tazarotene sulfoxide and tazarotene benzoate were incubated at room temperature with human and rat plasma. The incubation was carried out in duplicate and samples were taken at specific time points for stability analyses (i) rat samples (0 hour, 2 hours and 4 hours) and (ii) human samples (0 hour, 2 hours, 4 hours and 8 hours). Samples were analyzed by LC-MS/MS.
# [7] = Stability in rat plasma at room temperature; assay type: in vitro ADME
# Protocol: as §1
# [8] = read-out: K4 Fold Change vs Untreated/OD controls (upregulation)
# [9] = read-out: K13 Fold Change vs Untreated/OD controls (upregulation)
# [10] = read-out: K19 Fold Change vs Untreated/OD controls (upregulation)
SMILES,detected in the receiving medium (passing through the skin) [1],half-life at 1 µM ([2]; Complete) [min],half-life at 1 µM ([2]; Without NADPH) [min],half-life at 10 µM ([2]; Complete) [min],half-life at 10 µM ([2]; Without NADPH) [min],"tazarotene lost ([3]; mixture of DUAC gel and TAZORAC cream, after four hours)",IL-1α activity compared to untreated and vehicle controls [4],"fold induction at 2830 µM [5, 8]","fold induction at 2830 µM [5, 9]","fold induction at 2830 µM [5, 10]",concentration in human plasma ([6]; 0 hour) [ng/mL],concentration in human plasma ([6]; 2 hours) [ng/mL],concentration in human plasma ([6]; 4 hours) [ng/mL],concentration in human plasma ([6]; 8 hours) [ng/mL],concentration in rat plasma ([7]; 0 hour) [ng/mL],concentration in rat plasma ([7]; 2 hours),concentration in rat plasma ([7]; 4 hours),"detectable in epidermis and dermis samples ([1]; 2 and 6 hours post-application, all samples including the placebo)",quantity in stability samples at the 6 hour time point relative to the 2 hour time point ([1]; mixture of DUAC gel and TAZORAC cream retained for stability testing),"% Label Tazarotene Benzoate ([3]; 35° C., 4 hours) [% Label]"
"CCOC(=O)c1ccc(C#Cc2ccc3c(c2)C(C)(C)CCS3)nc1 [Tazarotene, ethyl 6-[2-(4,4-dimethylthiochroman-6-yl)-ethynyl nicotinate]",could not be detected,7.88,7.71,8.38,7.58,approximately 22%,only slightly increased,103 to 180,12,33 to 43,17.1,17.1,16.6,17.5,16.4,<LOD,<LOD,–,–,–
"CCOC(=O)c1ccc(C#Cc2ccc3c(c2)C(C)(C)CC(OC(=O)c2ccccc2)S3)nc1 (stereo not drawn) [Compound 4, 6-(2-(2-benzoyloxy-4,4-dimethylthiochroman-6-yl)ethynyl)nicotinic acid, ethyl ester]",could not be detected,7.76,7.19,71.4,47.5,–,only slightly increased,29,7,8,52.0,52.0,50.0,45.8,59.8,15.0 ng/mL,2.29 ng/mL,detectable in all samples,significant increase,~6.3

# — patent US9062037B2, “Tazarotene derivatives” (Stiefel Laboratories, Inc., priority 2009, dated 2015)
